# Assay results taken from PubChem BioAssay AID330 (DTP/NCI, 2004).
# “And” between values parts separate entries of the source, which are not always exact repeats. Identical values can stand only once. Inconclusive results and toxic doses are left out.
# Tested on: P388 leukemia ip, CD2F1 mice, survival T/C
# Experiment: NCI In Vivo Anticancer Drug Screen. Data for tumor model P388 Leukemia (intraperitoneal) in CD2F1 (CDF1) mice
# Settings: endpoint: median survival time, higher = longer survival
# In short: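 Mice carrying the transplanted tumor received test compound or vehicle. Survival was recorded in each group, and the value is the treated-group measurement divided by that of the vehicle-treated control group.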
# [1] = dose: 50.0 mg/kg/injection, schedule: Q01DX005 (ip), vehicle: Klucel (hydroxypropylcellulose) (HPC)
# [2] = dose: 6.25 mg/kg/injection, schedule: Q01DX009 (ip), vehicle: saline with Tween-80
# [3] = dose: 12.5 mg/kg/injection, schedule: Q01DX009 (ip), vehicle: saline with Tween-80
# [4] = dose: 25.0 mg/kg/injection, schedule: Q01DX009 (ip), vehicle: saline with Tween-80
# [5] = dose: 50.0 mg/kg/injection, schedule: Q01DX009 (ip), vehicle: saline with Tween-80
# [6] = dose: 200.0 mg/kg/injection, schedule: Q01DX009 (ip), vehicle: saline with Tween-80
# [7] = dose: 100.0 mg/kg/injection, schedule: Q01DX009 (ip), vehicle: saline with Tween-80
smiles,measurement,setting,value
Cc1c2ccccc2cc2c1ccc1ccccc12,T/C,"dose: 17.5 mg/kg/injection, schedule: Q01DX009 (ip), vehicle: saline with Tween-80",116 % of control
same,T/C,"dose: 25.0 mg/kg/injection, schedule: Q04DX003 (ip), vehicle: other",100 % of control
same,T/C,"dose: 35.0 mg/kg/injection, schedule: Q01DX009 (ip), vehicle: saline with Tween-80",122 % of control
same,T/C,"dose: 50.0 mg/kg/injection, schedule: Q04DX003 (ip), vehicle: other",100 % of control
same,T/C,"dose: 70.0 mg/kg/injection, schedule: Q01DX009 (ip), vehicle: saline with Tween-80",152 % of control
same,T/C,"dose: 100.0 mg/kg/injection, schedule: Q04DX003 (ip), vehicle: other",102 % of control
same,T/C,"dose: 200.0 mg/kg/injection, schedule: Q04DX003 (ip), vehicle: other",102 % of control
same,T/C,"dose: 400.0 mg/kg/injection, schedule: Q04DX003 (ip), vehicle: other",107 % of control
CC(=O)OCC1OC([Se-])C(OC(C)=O)C(OC(C)=O)C1OC(C)=O.N#CCC[PH+](CCC#N)CCC#N.[Au+] (stereo not drawn),T/C,"dose: 60.0 mg/kg/injection, schedule: Q01DX005 (ip), vehicle: saline with Tween-80",98 % of control
C=COC(=O)C(Cc1ccc(OC)cc1)NC(=O)OCc1ccccc1 (stereo not drawn),T/C,"dose: 100.0 mg/kg/injection, schedule: Q04DX002 (ip), vehicle: Klucel (hydroxypropylcellulose) (HPC)",103 % of control
same,T/C,"dose: 200.0 mg/kg/injection, schedule: Q04DX002 (ip), vehicle: Klucel (hydroxypropylcellulose) (HPC)",91 % of control
same,T/C,"dose: 400.0 mg/kg/injection, schedule: Q04DX002 (ip), vehicle: Klucel (hydroxypropylcellulose) (HPC)",94 % of control
CN1CCC(OC(N)=O)CC1,T/C,"dose: 100.0 mg/kg/injection, schedule: Q01DX009 (ip), vehicle: saline",100 % of control
same,T/C,"dose: 200.0 mg/kg/injection, schedule: Q01DX009 (ip), vehicle: saline",100 % of control
same,T/C,"dose: 400.0 mg/kg/injection, schedule: Q01DX009 (ip), vehicle: saline",104 % of control
CNC(=O)Sc1ccc(Cl)cc1,T/C,"dose: 50.0 mg/kg/injection, schedule: Q01DX009 (ip), vehicle: suspension in saline",102 % of control
same,T/C,"dose: 100.0 mg/kg/injection, schedule: Q01DX009 (ip), vehicle: suspension in saline",105 % of control
same,T/C,"dose: 200.0 mg/kg/injection, schedule: Q01DX009 (ip), vehicle: suspension in saline",113 % of control
COC(=O)C12Oc3ccc(-c4ccc5c(c4O)C(O)=C4C(=O)CC(C)C(O)C4(C(=O)OC)O5)c(O)c3C(O)=C1C(=O)CC(C)C2O (stereo not drawn),T/C,"dose: 0.39 mg/kg/injection, schedule: Q01DX009 (ip), vehicle: saline with Tween-80",100 % of control
same,T/C,"dose: 0.78 mg/kg/injection, schedule: Q01DX009 (ip), vehicle: saline with Tween-80",104 % of control
same,T/C,"dose: 1.56 mg/kg/injection, schedule: Q01DX009 (ip), vehicle: saline with Tween-80",106 % of control
same,T/C,"dose: 2.5 mg/kg/injection, schedule: Q01DX009 (ip), vehicle: saline with Tween-80",96 % of control
same,T/C,"dose: 3.13 mg/kg/injection, schedule: Q01DX009 (ip), vehicle: saline with Tween-80",112 % of control
same,T/C,"dose: 5.0 mg/kg/injection, schedule: Q01DX009 (ip), vehicle: saline with Tween-80",100 % of control
same,T/C,"dose: 6.25 mg/kg/injection, schedule: Q04DX003 (ip), vehicle: saline with Tween-80",104 % of control
same,T/C,"dose: 8.33 mg/kg/injection, schedule: Q04DX003 (ip), vehicle: saline with Tween-80",104 % of control
same,T/C,"dose: 10.0 mg/kg/injection, schedule: Q01DX009 (ip), vehicle: saline with Tween-80",105 % of control
same,T/C,"dose: 12.5 mg/kg/injection, schedule: Q04DX003 (ip), vehicle: saline with Tween-80",109 % of control
same,T/C,"dose: 18.7 mg/kg/injection, schedule: Q04DX003 (ip), vehicle: saline with Tween-80",113 % of control
same,T/C,"dose: 25.0 mg/kg/injection, schedule: Q04DX003 (ip), vehicle: saline with Tween-80",118 % of control
O=C1C=C(O)C2CCCCC2N1 (stereo not drawn),T/C,[1],99 % of control
same,T/C,"dose: 100.0 mg/kg/injection, schedule: Q01DX005 (ip), vehicle: Klucel (hydroxypropylcellulose) (HPC)",95 % of control
CC(O)C(=O)N(CCO)CCO (stereo not drawn),T/C,"dose: 50.0 mg/kg/injection, schedule: Q01DX005 (ip), vehicle: saline",108 % of control
same,T/C,"dose: 100.0 mg/kg/injection, schedule: Q01DX005 (ip), vehicle: saline",101 % of control
same,T/C,"dose: 200.0 mg/kg/injection, schedule: Q01DX005 (ip), vehicle: saline",104 % of control
NC(N)=Nc1ccc(-c2cc3cc(N=C(N)N)ccc3s2)cc1,T/C,"dose: 6.25 mg/kg/injection, schedule: Q01DX005 (ip), vehicle: Klucel (hydroxypropylcellulose) (HPC)",108 % of control
same,T/C,"dose: 12.5 mg/kg/injection, schedule: Q01DX005 (ip), vehicle: Klucel (hydroxypropylcellulose) (HPC)",105 % of control
same,T/C,"dose: 25.0 mg/kg/injection, schedule: Q01DX005 (ip), vehicle: Klucel (hydroxypropylcellulose) (HPC)",115 % of control
same,T/C,[1],168 % of control
CC1NC(=O)N(C(C)C)C1=O (stereo not drawn),T/C,"dose: 50.0 mg/kg/injection, schedule: Q01DX005 (ip), vehicle: saline with Tween-80",100 % of control
same,T/C,"dose: 100.0 mg/kg/injection, schedule: Q01DX005 (ip), vehicle: saline with Tween-80",100 % of control
same,T/C,"dose: 200.0 mg/kg/injection, schedule: Q01DX005 (ip), vehicle: saline with Tween-80",106 % of control
CC(C)CC([NH-])C(=O)O.[C-]#[O+].[C-]#[O+].[Rh] (stereo not drawn),T/C,[2],113 % of control
same,T/C,[3],115 % of control
same,T/C,[4],109 % of control
Cc1oc(NCc2ccccc2)c(C#N)c1C,T/C,"dose: 50.0 mg/kg/injection, schedule: Q01DX009 (ip), vehicle: saline + alcohol",105 % of control
same,T/C,"dose: 100.0 mg/kg/injection, schedule: Q01DX009 (ip), vehicle: saline + alcohol",90 % of control
same,T/C,"dose: 200.0 mg/kg/injection, schedule: Q01DX009 (ip), vehicle: saline + alcohol",91 % of control
CN(C)c1ccc2c3c(c(=O)oc2c1)CCC3,T/C,"dose: 3.12 mg/kg/injection, schedule: Q01DX009 (ip), vehicle: saline with Tween-80",102 % of control
same,T/C,[2],112 % of control
same,T/C,[3],114 % of control and 115 % of control
same,T/C,[4],107 % of control
same,T/C,[5],104 % of control and 111 % of control
same,T/C,[6],94 % of control
COc1ccc(-c2nn(CCO)c(=O)c(C#N)c2-c2ccc(OC)cc2)cc1,T/C,"dose: 25.0 mg/kg/injection, schedule: Q04DX002 (ip), vehicle: distilled water + Tween-80",101 % of control
same,T/C,"dose: 50.0 mg/kg/injection, schedule: Q04DX002 (ip), vehicle: distilled water + Tween-80",98 % of control
same,T/C,"dose: 100.0 mg/kg/injection, schedule: Q04DX002 (ip), vehicle: distilled water + Tween-80",103 % of control
same,T/C,"dose: 200.0 mg/kg/injection, schedule: Q04DX002 (ip), vehicle: distilled water + Tween-80",89 % of control
Cc1ccc(C)c2c1CCC2C (stereo not drawn),T/C,[4],101 % of control and 110 % of control
same,T/C,[5],111 % of control and 116 % of control
same,T/C,[7],104 % of control and 114 % of control
CC(=O)c1ccc(-c2ccccc2)cc1,T/C,"dose: 100.0 mg/kg/injection, schedule: Q04DX003 (ip), vehicle: saline with Tween-80",91 % of control
same,T/C,"dose: 200.0 mg/kg/injection, schedule: Q04DX003 (ip), vehicle: saline with Tween-80",91 % of control
same,T/C,"dose: 400.0 mg/kg/injection, schedule: Q04DX003 (ip), vehicle: saline with Tween-80",95 % of control
CCCCCCCC(=O)N/N=C(\CO)[C@]1(O)Cc2c(O)c3c(c(O)c2[C@@H](OC2CC(N)C(O)C(C)O2)C1)C(=O)c1c(OC)cccc1C3=O (stereo partly drawn),T/C,"dose: 1.25 mg/kg/injection, schedule: Q04DX003 (ip), vehicle: water",109 % of control
same,T/C,"dose: 2.5 mg/kg/injection, schedule: Q04DX003 (ip), vehicle: water",109 % of control
same,T/C,"dose: 5.0 mg/kg/injection, schedule: Q04DX003 (ip), vehicle: water",107 % of control
same,T/C,"dose: 10.0 mg/kg/injection, schedule: Q04DX003 (ip), vehicle: water",119 % of control and 121 % of control
same,T/C,"dose: 20.0 mg/kg/injection, schedule: Q04DX003 (ip), vehicle: water",123 % of control
same,T/C,"dose: 80.0 mg/kg/injection, schedule: Q04DX003 (ip), vehicle: water",179 % of control
Cc1ccc(NC(=O)Oc2ccc(OCc3ccccc3)cc2)c([N+](=O)[O-])c1,T/C,[5],99 % of control
same,T/C,[7],97 % of control
same,T/C,[6],95 % of control
CCN1CCC(=C(c2ccccc2)c2ccccc2)C1,T/C,"dose: 6.25 mg/kg/injection, schedule: Q01DX009 (ip), vehicle: Klucel (hydroxypropylcellulose) (HPC)",102 % of control
same,T/C,"dose: 12.5 mg/kg/injection, schedule: Q01DX009 (ip), vehicle: Klucel (hydroxypropylcellulose) (HPC)",102 % of control
same,T/C,"dose: 25.0 mg/kg/injection, schedule: Q01DX009 (ip), vehicle: Klucel (hydroxypropylcellulose) (HPC)",100 % of control
same,T/C,"dose: 50.0 mg/kg/injection, schedule: Q01DX009 (ip), vehicle: Klucel (hydroxypropylcellulose) (HPC)",110 % of control
same,T/C,"dose: 100.0 mg/kg/injection, schedule: Q01DX009 (ip), vehicle: Klucel (hydroxypropylcellulose) (HPC)",108 % of control
